Article PMC7838546, “A Thermostable, Modified Cathelicidin-Derived Peptide With Enhanced Membrane-Active Activity Against Salmonella enterica serovar Typhimurium” (Frontiers in Microbiology, 2021)
Where two headings read alike, the source gives them in different places. Ends that are not written are not given here.

Key:
[1] = system: S. enterica serovar 4,5,12:i:- H2-046 (foodborne isolate); test: MIC/MBC, broth microdilution and colony count; format: cell-based, Salmonella enterica serovar 4,5,12:i:-; settings: H2-046, pork heart, resistant Amp, T, intermediate Cp, broth microdilution, 37°C, 24 h
Protocol: Salmonella enterica serovar Typhimurium ATCC 13311, 24 drug-resistant foodborne and eleven drug-resistant human borne S. enterica serovar Typhimurium and 4,5,12:i:- isolates (Table 1) were used as test microorganisms. They were previously isolated for molecular characterization in 2014 and kindly provided by Dr. Soraya Chaturongakul (Mahidol University, Thailand) ([Huoy et al., 2014]). All bacteria were cultured in Tryptic Soy Broth (TSB) and incubated at 37°C for 18 h. Mueller Hinton Broth (MHB) was then used to wash and rinse the bacteria. The bacterial suspensions were then diluted to obtain concentrations of 10^7 CFU/ml for inoculations.
A modified version of the National Committee for Clinical Laboratory Standards (NCCLS) broth microdilution method ([Steinberg et al., 1997]) was used to determine the minimum inhibitory concentrations (MICs) of peptide and compared to that of nisin. Fifty microliters of two-fold serial dilutions of each peptide [0.98–250 μg/ml in 0.01% (v/v) acetic acid and 0.2% (w/v) bovine serum albumin (BSA, Sigma-Aldrich, MO, United States)], were incubated with 50 μl of bacterial suspensions (approximately 10^7 CFU/ml) at 37°C for 24 h in a shaking incubator. MICs were taken as the lowest concentration of peptide at which growth was inhibited as observed by visual inspection. Bacterial cultures without peptides and uncultured broth were used as positive and negative controls, respectively. Minimal bactericidal concentrations (MBCs) were determined using a colony count assay ([Clinical Laboratory Standards Institute [CLSI], 2015]). Fifty microliters of samples from each non-turbid well in the MIC determination experiment was plated on Mueller Hinton Agar (MHA) and colonies were observed after overnight incubation at 37°C. MBCs were designated as the least concentration showing no colony growth on the plate. All of experiments were performed in triplicate.

[2] = system: human red blood cells (hRBCs); settings: highest concentration tested 250 μg/ml, ref Klubthawee et al., 2020; cited from earlier work
Text: Recently, a 12-mer α-helical, cationic AMP (‘P7’) was designed based on the cathelicidin family using a template-modified strategy, and subsequently modified by truncation and amino acid substitution ([Klubthawee et al., 2020]). […] Furthermore, P7 sho ...

[3] = system: S. enterica serovar Typhimurium ATCC 13311; format: cell-based, Salmonella enterica serovar Typhimurium
Protocol: In order to induce bacterial resistance to P7, S. enterica serovar Typhimurium ATCC 13311 were cultured for 10 serial passages in MHB in the presence of P7 in a series of concentrations ranging from 0.98 to 250 μg/ml ([Veldhuizen et al., 2013]). In each passage, 50 μl of bacterial samples at sublethal concentrations (the highest peptide concentration displaying 80% growth compared with growth in MHB) were used to determine MIC values by a broth microdilution assay.

| Substance | MIC [1] | Hemolysis [2] | MIC ([3]; serial passage 1) | MIC ([3]; serial passage 2) | MIC ([3]; serial passage 3) | MIC ([3]; serial passage 4) | MIC ([3]; serial passage 5) | MIC ([3]; serial passage 6) | MIC ([3]; serial passage 7) | MIC ([3]; serial passage 8) | MIC ([3]; serial passage 9) | MIC ([3]; serial passage 10) | MIC ([3]; through all bacterial passages (10 serial passages)) |
| --- | --- | --- | --- | --- | --- | --- | --- | --- | --- | --- | --- | --- | --- |
| Nisin: authorized food preservative peptide, binds lipid II and forms membrane pores (ITSISLCTPGCKTGALMGCNMKTATCHCSIHVSK; cysteine pairing not given here; also: lantibiotic nisin-A; UniProt P13068 24-57, looked up) | >1000 µg/mL | – | – | – | – | – | – | – | – | – | – | – | – |
| KIAKRIWKILRR-NH2 [P7] | – | less than 5% | 3.91 µg/mL | 3.91 µg/mL | 3.91 µg/mL | 3.91 µg/mL | 3.91 µg/mL | 3.91 µg/mL | 3.91 µg/mL | 3.91 µg/mL | 3.91 µg/mL | 3.91 µg/mL | 3.91 µg/mL |
